Each structure is given as a SMILES string.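 All cell lines were grown in 96-well plates and treated with compound for 48 hours. Abbreviation: GI50, concentration required for 50% inhibition of growth.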 Active and inactive are the calls of the source. Cut-off read from the data, not from the text of the source: active = GI50 up to about 1.1 µM and inactive = higher.

Among the test systems are HCT-15; DMS-114; HL-60; M19-MEL; SK-MEL-5; UACC-62; A498; OVCAR-3; Malme-3M; XF498; HOP-18; RPMI-8226; CCRF-CEM; HCT-116; SK-MEL-2; OVCAR-4; M14; MDA-N; DU-145.
Assay in all cases: growth of human tumour cells (NCI), 48 h

In the case of `CCOC(=O)NC(=O)c1cn(CCN(CCO)C(=O)NCCCCCCNC(=O)N(CCO)CCn2cc(C(=O)NC(=O)OCC)c(=O)[nH]c2=O)c(=O)[nH]c1=O`, the GI50 with HCT-15 was more than 100 µM; in the experiment on DMS-114 it was > 100 µM (inactive); with HL-60 it was > 100 µM (inactive); with M19-MEL it was > 100 µM (inactive); in the experiment with SK-MEL-5 it was > 100 µM (inactive); in the experiment on UACC-62, > 100 µM (inactive). Further, the GI50 in the experiment on A498, in the experiment on OVCAR-3, with Malme-3M, with XF498, with HOP-18 and with RPMI-8226 was > 100 µM (inactive) each time. Also, the GI50 with CCRF-CEM, in the experiment with HCT-116, in the experiment with SK-MEL-2 and in the experiment on OVCAR-4 was > 100 µM (inactive) throughout.

Take `CCCCCCCCCOCC(COP(=O)([O-])OCC[N+](C)(C)C)OC` (stereo unspecified): the GI50 with HCT-15 was more than 100 µM; in the experiment with DMS-114 it was > 100 µM (inactive); in the experiment with HL-60, > 100 µM (inactive); in the experiment with M19-MEL it was > 100 µM (inactive); in the experiment with SK-MEL-5, > 100 µM (inactive); in the experiment on UACC-62 it was > 100 µM (inactive). Besides, the GI50 in the experiment on A498, in the experiment with OVCAR-3, in the experiment on Malme-3M, with XF498, with HOP-18 and in the experiment with RPMI-8226 was > 100 µM (inactive) in each case. In addition, the GI50 in the experiment on CCRF-CEM, in the experiment on HCT-116, with SK-MEL-2 and with OVCAR-4 was > 100 µM (inactive) throughout.

Take `CCCCCCCCCCCCCCCC(=O)OC1C(O)C(CO)OC(OC)C1NC(=O)N(CCCl)N=O` (stereo unspecified): the GI50 with HCT-15 was 23.7 µM; with DMS-114, 12.1 µM (inactive); with M19-MEL it was 15.9 µM (inactive); in the experiment with SK-MEL-5, 13.2 µM (inactive); in the experiment on UACC-62, 2 µM (inactive); with OVCAR-3, 18.7 µM (inactive). Besides, the GI50 in the experiment on M14 is 18.4 µM (inactive); with XF498, 14.6 µM (inactive); in the experiment on HOP-18, 15.8 µM (inactive); in the experiment with RPMI-8226, 21.1 µM (inactive); in the experiment on HCT-116, 14.3 µM (inactive); in the experiment with SK-MEL-2 it was 23.9 µM (inactive). Moreover, the GI50 in the experiment on OVCAR-4 was 20.6 µM (inactive).

For `CC(C)NC(=O)OCc1c2c(n(C)c1COC(=O)NC(C)C)-c1ccccc1CC2`, the GI50 in the experiment with HCT-15 was 14 µM; in the experiment on DMS-114 it was 5.43 µM (inactive); with HL-60 it was 2.55 µM (inactive); in the experiment with M19-MEL it was 9.89 µM (inactive); in the experiment on SK-MEL-5, 14.4 µM (inactive); in the experiment with UACC-62 it was 12.7 µM (inactive). Moreover, the GI50 in the experiment on A498 is 23.4 µM (inactive); in the experiment with OVCAR-3 it was 14.2 µM (inactive); in the experiment on Malme-3M it was 5.51 µM (inactive); in the experiment on XF498 it was 13.1 µM (inactive); with HOP-18, 2.28 µM (inactive); with RPMI-8226, 3.23 µM (inactive). The GI50 is 2.07 µM (inactive) with CCRF-CEM, 10 µM (inactive) with HCT-116, 14.5 µM (inactive) with SK-MEL-2 and 15 µM (inactive) with OVCAR-4.

Consider `COc1ccc(C(=O)Cc2ccc(Br)cc2)cc1OC`, for which the GI50 in the experiment on HCT-15 is more than 100 µM; in the experiment on DMS-114 it was > 100 µM (inactive); in the experiment with HL-60 it was > 100 µM (inactive); in the experiment on M19-MEL it was > 100 µM (inactive); in the experiment with SK-MEL-5, > 100 µM (inactive); in the experiment with UACC-62, > 100 µM (inactive). Further, the GI50 in the experiment on A498 was 40.4 µM (inactive); in the experiment with OVCAR-3, > 100 µM (inactive); with M14, > 100 µM (inactive); in the experiment with Malme-3M, > 100 µM (inactive); with XF498 it was 31.7 µM (inactive); with HOP-18 it was > 100 µM (inactive). In addition, the GI50 in the experiment with RPMI-8226, in the experiment on CCRF-CEM, in the experiment with HCT-116, with SK-MEL-2 and with OVCAR-4 was > 100 µM (inactive) in each case.

As for `O=[PH](O)c1cccs1`, the GI50 in the experiment with HCT-15 is more than 100 µM; with DMS-114 it was > 100 µM (inactive); with HL-60 it was > 100 µM (inactive); in the experiment on M19-MEL, > 100 µM (inactive); with SK-MEL-5 it was > 100 µM (inactive); with UACC-62, > 100 µM (inactive). Besides, the GI50 with A498, in the experiment on M14, with XF498, in the experiment on HOP-18, in the experiment with RPMI-8226 and in the experiment with CCRF-CEM was > 100 µM (inactive) throughout. In the experiment with HCT-116, the GI50 is > 100 µM (inactive).

As for `CN(C)c1ccc(/N=C2/C=CC(=C(C#N)C#N)c3ccccc32)cc1`, the GI50 is 0.195 µM in the experiment with HCT-15; 0.234 µM (active) with DMS-114; 0.0365 µM (active) with MDA-N; 0.0541 µM (active) in the experiment with HL-60; 0.904 µM (active) in the experiment on M19-MEL; 0.133 µM (active) in the experiment with SK-MEL-5. Moreover, the GI50 in the experiment with UACC-62 was 0.386 µM (active); in the experiment on DU-145, 0.259 µM (active); in the experiment with A498, 0.392 µM (active); in the experiment with OVCAR-3 it was 0.118 µM (active); with M14, 0.145 µM (active); with Malme-3M it was 0.625 µM (active). Moreover, the GI50 in the experiment with XF498 was 0.261 µM (active); in the experiment with HOP-18, 1.14 µM (inactive); with RPMI-8226, 0.122 µM (active); with CCRF-CEM, 0.094 µM (active); in the experiment on HCT-116, 0.117 µM (active); in the experiment on SK-MEL-2 it was 0.337 µM (active). Further, in the experiment with OVCAR-4, the GI50 was 0.906 µM (active).

Consider `Cc1c2cc[n+](C)cc2c(C)c2c1[nH]c1ccccc12`, for which the GI50 was 0.275 µM (active) with DMS-114; 9.62 µM (inactive) in the experiment with HL-60; 0.984 µM (active) in the experiment with M19-MEL; 1.35 µM (inactive) in the experiment on SK-MEL-5; 4.5 µM (inactive) with UACC-62; 4.26 µM (inactive) in the experiment on A498. Further, the GI50 in the experiment on OVCAR-3 is 2.99 µM (inactive); with Malme-3M, 0.855 µM (active); with XF498, 0.548 µM (active); with HOP-18, 2.82 µM (inactive); in the experiment on RPMI-8226, 8.49 µM (inactive); in the experiment on CCRF-CEM, 2.33 µM (inactive). Also, the GI50 in the experiment on HCT-116 is 4.22 µM (inactive); in the experiment on SK-MEL-2, 1.11 µM (active); in the experiment with OVCAR-4, 2.77 µM (inactive).

Turning to `O=C1CNC(=O)N1` [HYDANTOIN], the GI50 in the experiment on HCT-15 was more than 1120 µM; in the experiment with DMS-114, > 1120 µM (inactive); with HL-60, > 1120 µM (inactive); in the experiment with M19-MEL, > 1120 µM (inactive); in the experiment with SK-MEL-5 it was > 1120 µM (inactive); in the experiment with UACC-62, > 1120 µM (inactive). Further, the GI50 with A498 was > 1120 µM (inactive); in the experiment with OVCAR-3, > 1120 µM (inactive); in the experiment on Malme-3M, > 1120 µM (inactive); with XF498, > 11.2 µM (inactive); in the experiment with HOP-18, > 1120 µM (inactive); in the experiment on RPMI-8226 it was > 1120 µM (inactive). Also, the GI50 in the experiment on CCRF-CEM is 681 µM (inactive); with HCT-116, > 1120 µM (inactive); in the experiment with SK-MEL-2, > 1120 µM (inactive); with OVCAR-4 it was > 1120 µM (inactive).

For `CC(=O)CC(=O)CCC(=O)O` [SUCCINYLACETONE], the GI50 is more than 100 µM in the experiment with HCT-15; > 100 µM (inactive) in the experiment on DMS-114; > 100 µM (inactive) in the experiment with HL-60; > 100 µM (inactive) with M19-MEL; > 100 µM (inactive) in the experiment with M14; > 100 µM (inactive) in the experiment on Malme-3M. The GI50 in the experiment with XF498, in the experiment on HOP-18, with HCT-116 and in the experiment with SK-MEL-2 was > 100 µM (inactive) each time.

The values are drawn from ChEMBL document CHEMBL1201862, “PubChem BioAssay data set” (2004).
